Entries after “also recorded” stand apart in the source; their conditions may differ.
Tests used:
NOD mice = experiment: Incidence of spontaneous autoimmune type 1 diabetes / normoglycemia in NOD mice; assay type: in vivo, mouse
Procedure: Non-Obese Diabetic (NOD) mice are a polygenic model for spontaneous autoimmune type 1 diabetes (T1D). NOD mice have an elevated risk for development of autoimmune type 1 diabetes. Thus, NOD mice were used to determine whether treatment IGF-2 reduces spontaneous development of type 1 diabetes.
In this experiment, one group of NOD mice (right panel) was injected with 3000 μg/kg of IGF-2 on each of 76 consecutive days, and a second group of NOD mice (left panel) was injected with saline. […] More specifically, at the end of the 76 days of treatment, only two of the treated mice had developed high glucose levels.
FIG. 30A depicts how many NOD mice have developed autoimmune type I diabetes during an initial 66 days of treatment with IGF-2, and at various intervals post-treatment. In this experiment, one group of NOD mice was injected with 3000 μg/kg of IGF-2 on each of 66 consecutive days, and a second group of NOD mice was injected with saline.
In one exemplary experiment, NOD mice were treated with a 3000 μg/kg daily doses of IGF-2 for 150 days. ⅘ of the treated mice maintained normoglycemia compared to ¼ of the control mice. In another exemplary experiment, NOD mice were treated with a 3000 μg/kg daily dose of IGF-2 for 75 days with follow-up glucose measurements taken for an additional 90 days (during which IGF-2 was not administered). ⅝ of the treated mice maintained normoglycemia compared to 2/11 of the control mice.

C57BL/6 STZ mice = experiment: Fasting blood glucose in STZ-induced diabetic C57BL/6 mice treated with IGF-2; assay type: in vivo, mouse; conditions: for fasting glucose levels during the ten-day course of treatment: day 0 and ten more times within ten days
Procedure: C57BL/6 mice male 8-10 weeks old, housed under conventional conditions and allowed laboratory chow and water ad libitum, were used in the experiments described below in Examples 3-4. Within each experiment, animals were matched by age and weight (20-24 g) and randomly divided into groups to receive different treatments. Diabetes was induced by one or more doses of streptozotocin (STZ).
Briefly, animals received intraperitoneally (i.p.) 100 mg/kg (b.w.) STZ (Cayman Chemical, Ann Arbor, MI) dissolved in citrate buffer on pH 4.5 (this procedure was repeated if needed). Clinical diabetes was defined by hyperglycemia (blood glucose levels >300 mg/dl in fasted animals). Fasting blood glucose levels were measured three times per week and samples were taken from the tail tip after starvation for 6 hours throughout the experiment.
Fasting blood glucose levels (mg/dL) were determined using the Accu-Chek Performa glucometer (Roche Diagnostics, Mannheim, Germany). After approximately two weeks of stable hyperglycemia, C57BL/6 STZ mice received exogenous injections of recombinant human IGF-2 (0.3-12 mg/kg/day injection) intraperitoneally for 5-10 consecutive days. During post-treatment follow-up period and upon termination, mice were tested for: fasting glucose, body weight, glucose tolerance test (IPGTT), serum C-peptide level, serum insulin level, and full blood and histological analysis (CBC, Chemistry, Insulin IHC and H&E).

db/db mice = experiment: 14 hour fasting blood glucose in db/db mice treated with IGF-2; assay type: in vivo, mouse
Procedure: db/db mice are bred to have a leptin deficiency, increasing susceptibility of the mice to obesity, insulin resistance, and type 2 diabetes (T2D).
In this experiment, one group of db/db mice was injected with 3000 μg/kg/day of IGF-2 for 68 days, a second group of db/db mice was injected with 12000 μg/kg/day of IGF-2 for 66 days, and a third group of db/db mice was injected with saline once a day for 68 days.
In one experiment (left panel), one group of db/db mice was injected with a daily dose of 12000 μg/kg of IGF-2 divided in two injections per day for 70 days, while another group of db/db mice was injected with saline. […] In another experiment (right panel), one group of db/db mice was injected with a daily dose of 12000 μg/kg of IGF-2 divided in two injections per day for 35 days, while another group of db/db mice was injected with saline.
In one exemplary experiment, db/db mice were treated with a 12,000 μg/kg daily dose for 70 days with 70 days of follow up (during which IGF-2 was not administered). All the treated mice maintained normoglycemia for at least 50 days following treatment. In another exemplary experiment, db/db mice were treated with a 12,000 μg/kg daily dose for 35 days with 35 days of follow up (during which IGF-2 was not administered). All the treated mice maintained normoglycemia for 35 days following treatment.

[1] = test system: human pancreatic islet cells; experiment: Insulin secretion of human pancreatic islet cells in response to a glucose pulse; assay type: cell-based; conditions: 50 nM for four days
β-MIN6 cells [2] = experiment: Insulin secretion of β-MIN6 cells following glucose induction; assay type: cell-based, mouse; conditions: 1 week treatment; IGF-2 5 nM, 20 nM, 80 nM
Description: (§1) β-MIN6 cells serve as an in vitro model of mouse pancreatic islets. β-MIN6 cells were used as an in vitro model to measure the effects of treatment with IGF-2.

β-MIN6 cells [3] = experiment: Cell count (cell proliferation) of β-MIN6 cells; assay type: cell-based, mouse; conditions: 5 nM, 20 nM, 80 nM, 1 week treatment
Description: as §1

insulin-like growth factor 2 [IGF-2]
fraction of the treated mice that maintained normoglycemia (NOD mice; 3000 μg/kg daily dose for 75 days, follow-up for an additional 90 days, control 2/11): ⅝
fraction of the treated mice that maintained normoglycemia (NOD mice; 3000 μg/kg daily doses for 150 days, control ¼): ⅘
incidence of spontaneous autoimmune type 1 diabetes (NOD mice; 3000 μg/kg on each of 66 consecutive days and post-treatment, vs saline control): significantly reduced
incidence of spontaneous autoimmune attack (NOD mice; 3000 μg/kg on each of 76 consecutive days vs saline): reduced dramatically
number of treated mice that had developed high glucose levels (NOD mice; 3000 μg/kg, at the end of the 76 days of treatment): two
hypoglycemia (C57BL/6 STZ mice; 3000 μg/kg/day, also when the dose was increased to 12,000 μg/kg/day): Hypoglycemia was never observed
hypoglycemia (C57BL/6 STZ mice; 10:1 ratio of dosages, between 3000 μg and 300 μg): did not cause hypoglycemia
fasting glucose levels during and shortly after the course of treatment (C57BL/6 STZ mice; IGF-2 300 μg/kg/day, initial dose and ten additional doses over ten days, STZ mice B5, B6, B3, B4): did not return to a normal range; also recorded: temporary drop in fasting glucose levels from days 10-25
long-term results on fasting glucose levels (C57BL/6 STZ mice; IGF-2 300 μg/kg/day, STZ mice B5, B3, B4): long-term results were not observed
fasting glucose levels during the ten-day course of treatment (C57BL/6 STZ mice; IGF-2 800 μg/kg/day, STZ mice A8, A6, F3, F4): returned to a normal range
blood glucose levels remaining, mice with full or almost full resolution (C57BL/6 STZ mice; IGF-2 800 μg/kg/day, half the mice (FIGS. 5A and 5B)): ~200 mg/dL
fasting glucose levels after the course of treatment (long term) (C57BL/6 STZ mice; IGF-2 800 μg/kg/day, mice A8 and A6): remained in the normal range until the end of the experiment; also recorded: remained in the normal range until STZ was provided again
fasting glucose levels after the ten day course of injections ended (C57BL/6 STZ mice; IGF-2 800 μg/kg/day, mice F3 and F4): around 400
blood glucose levels remaining, mice with partial improvement (C57BL/6 STZ mice; IGF-2 800 μg/kg/day, the remaining mice (FIGS. 6A and 6B)): ~400 mg/dL
fasting glucose levels during the ten-day course of treatment (C57BL/6 STZ mice; IGF-2 3000 μg/kg/day, STZ mice C1, C8, C6, F1): returned to a normal range
long-term improvements in blood glucose levels (C57BL/6 STZ mice; IGF-2 12,000 μg/kg daily on each of 12 consecutive days): long-term improvements in blood glucose levels were obtained
long-term improvements in blood glucose levels (C57BL/6 STZ mice; IGF-2 12,000 μg/kg daily on only 5 consecutive days): long-term improvements in blood glucose levels were not obtained
time to reduce the blood glucose level to a normal range (C57BL/6 STZ mice; daily intraperitoneal 3000 μg/kg/day, averaged over four mice): 3 to 5 days
blood glucose level reached (normal range), averaged over four mice (C57BL/6 STZ mice; daily intraperitoneal 3000 μg/kg/day, maintained for the remainder of the 10 day window): 100 to 200 mg/dL
time post treatment for which normal blood glucose levels are maintained (C57BL/6 STZ mice; four mice, single 10 day course at 3000 μg/kg/day, long term follow up): at least 300 days
time following treatment for which all the treated mice maintained normoglycemia (db/db mice; 12,000 μg/kg daily dose for 35 days, 35 days of follow up): 35 days
time following treatment for which all the treated mice maintained normoglycemia (db/db mice; 12,000 μg/kg daily dose for 70 days, 70 days of follow up): at least 50 days
14 hour fasting blood glucose levels (db/db mice; FIG. 25 left panel, 12000 μg/kg daily in two injections per day for 70 days): reduced blood glucose levels (14 hour fasting blood glucose levels) to a normal range
14 hour fasting blood glucose levels (db/db mice; FIG. 25 right panel, 12000 μg/kg daily in two injections per day for 35 days): reduced blood glucose levels (14 hour fasting blood glucose levels) to a normal range
14 hour fasting blood glucose levels (db/db mice; first group of db/db mice (FIG. 23), 3000 μg/kg/day for 68 days): reduced blood glucose levels (14 hour fasting blood glucose levels) to a normal range
14 hour fasting blood glucose levels (db/db mice; first group of db/db mice (FIG. 23), 12000 μg/kg/day for 66 days): reduced blood glucose levels (14 hour fasting blood glucose levels) to a normal range
14 hour fasting blood glucose levels (db/db mice; second group of db/db mice (FIG. 24), 12,000 μg/kg/day, 68 day treatment period): reduced blood glucose levels (14 hour fasting blood glucose levels) to a normal range
increase of insulin secretion in response to a glucose pulse compared to untreated cells [1]: ~50%
insulin secretion following glucose induction (β-MIN6 cells [2]): increases insulin secretion (following glucose induction) in a dose-dependent manner
cell count (cell proliferation) (β-MIN6 cells [3]): increases cell proliferation in a dose-dependent manner
